Data from PubChem BioAssay AID1745844 (Carcinogenic Potency Database (CPDB), 2022).
Calls of active or inactive are those of the source. How the calls were made is not given here.

Test system: rodent lifetime carcinogenesis bioassay, tumor incidence TD50
Experiment: chronic cancer bioassays in animals – CPDB, compiled studies (AID 1745844)

Structure (SMILES): CCCCCCCCCCCCN=C(N)N
- carcinogen call (mouse, strain B6AKF1, females, oral dosing, site: any site (literature study), lesion: several types, types named in the paper, dosed 76 weeks, study length 76 weeks): negative (inactive)
- carcinogen call (mouse, strain B6AKF1, females, oral dosing, site: liver, lesion: hepatoma, dosed 76 weeks, study length 76 weeks): negative (inactive)
- carcinogen call (mouse, strain B6AKF1, females, oral dosing, site: lung, lesion: adenoma, dosed 76 weeks, study length 76 weeks): negative (inactive)
- TD50 (mouse, strain B6AKF1, males, oral dosing, site: any site (literature study), lesion: several types, types named in the paper, dosed 76 weeks, study length 76 weeks): 149 mg/kg/day (inactive)
- carcinogen call (mouse, strain B6AKF1, males, oral dosing, site: liver, lesion: hepatoma, dosed 76 weeks, study length 76 weeks): negative (inactive)
- TD50 (mouse, strain B6AKF1, males, oral dosing, site: lung, lesion: several types, types named in the paper, dosed 76 weeks, study length 76 weeks): 41.9 mg/kg/day (inactive)
- TD50 (mouse, strain B6C3F1, females, oral dosing, site: any site (literature study), lesion: several types, types named in the paper, dosed 76 weeks, study length 76 weeks): 54.7 mg/kg/day (inactive)
- TD50 (mouse, strain B6C3F1, females, oral dosing, site: liver, lesion: hepatoma, dosed 76 weeks, study length 76 weeks): 54.7 mg/kg/day (inactive)
- carcinogen call (mouse, strain B6C3F1, females, oral dosing, site: lung, lesion: several types, types named in the paper, dosed 76 weeks, study length 76 weeks): negative (inactive)
- TD50 (mouse, strain B6C3F1, males, oral dosing, site: any site (literature study), lesion: several types, types named in the paper, dosed 76 weeks, study length 76 weeks): 10.8 mg/kg/day (inactive)
- TD50 (mouse, strain B6C3F1, males, oral dosing, site: liver, lesion: hepatoma, dosed 76 weeks, study length 76 weeks): 19.4 mg/kg/day (inactive)
- TD50 (mouse, strain B6C3F1, males, oral dosing, site: lung, lesion: adenoma, dosed 76 weeks, study length 76 weeks): 30.1 mg/kg/day (inactive)

Structure (SMILES): COc1cc(OC)c2c3c(c(=O)oc2c1)CCC3
- carcinogen call (rat, strain Fischer, males, by gavage, site: liver, lesion: one or several types, types not named, dosed 52 weeks, study length 87 weeks): negative (inactive)

Structure (SMILES): OCN(CO)c1nc(N(CO)CO)nc(N(CO)CO)n1
- TD50 (rat, strain Sprague-Dawley, females, in feed, site: any site (literature study), lesion: several types, types named in the paper, dosed 44 weeks, study length 66 weeks): 6.82 mg/kg/day
- TD50 (rat, strain Sprague-Dawley, females, in feed, site: kidney/pelvis, lesion: transitional-cell carcinoma, dosed 44 weeks, study length 66 weeks): 33.6 mg/kg/day
- TD50 (rat, strain Sprague-Dawley, females, in feed, site: mammary gland, lesion: adenocarcinoma, dosed 44 weeks, study length 66 weeks): 10.2 mg/kg/day
- TD50 (rat, strain Sprague-Dawley, females, in feed, site: mammary gland, lesion: several types, types named in the paper, dosed 44 weeks, study length 66 weeks): 11.9 mg/kg/day

Structure (SMILES): Nc1ccc(-c2ccc(N)c(Cl)c2)cc1Cl
- carcinogen call (dog, strain Beagle, females, given by capsule, site: liver, lesion: several types, types named in the paper, dosed 369 weeks, study length 370 weeks): positive
- carcinogen call (dog, strain Beagle, females, given by capsule, site: urinary bladder, lesion: several types, types named in the paper, dosed 369 weeks, study length 370 weeks): positive
- carcinogen call (mouse, strain ICR/Jcl, males, in feed, site: liver, lesion: hepatoma, dosed 52 weeks, study length 52 weeks): positive
- carcinogen call (rat, strain Charles River CD (Sprague-Dawley), females, in feed, site: liver, lesion: one or several types, types not named, dosed 69 weeks, study length 69 weeks): negative (inactive)
- TD50 (rat, strain Charles River CD (Sprague-Dawley), females, in feed, site: mammary gland, lesion: adenocarcinoma, dosed 69 weeks, study length 69 weeks): 18.3 mg/kg/day
- TD50 (rat, strain Charles River CD (Sprague-Dawley), males, in feed, site: Zymbal's gland, lesion: squamous-cell carcinoma, dosed 69 weeks, study length 69 weeks): 60.1 mg/kg/day
- TD50 (rat, strain Charles River CD (Sprague-Dawley), males, in feed, site: all sites, lesion: granulocytic leukemia, dosed 69 weeks, study length 69 weeks): 66.2 mg/kg/day
- carcinogen call (rat, strain Charles River CD (Sprague-Dawley), males, in feed, site: liver, lesion: one or several types, types not named, dosed 69 weeks, study length 69 weeks): negative (inactive)
- TD50 (rat, strain Charles River CD (Sprague-Dawley), males, in feed, site: mammary gland, lesion: adenocarcinoma, dosed 69 weeks, study length 69 weeks): 69.6 mg/kg/day

Structure (SMILES): CCC[CH2][Sn]([CH2]CCC)([O]C(C)=O)[O]C(C)=O
- TD50 (mouse, strain B6C3F1, females, in feed, site: any site (literature study), lesion: several types, types named in the paper, dosed 78 weeks, study length 92 weeks): 29.6 mg/kg/day
- TD50 (mouse, strain B6C3F1, females, in feed, site: liver, lesion: hepatocellular adenoma + hepatocellular carcinoma + neoplastic nodule, dosed 78 weeks, study length 92 weeks): 31.6 mg/kg/day
- TD50 (mouse, strain B6C3F1, females, in feed, site: liver, lesion: hepatocellular adenoma, dosed 78 weeks, study length 92 weeks): 31.6 mg/kg/day (inactive)
- TD50 (mouse, strain B6C3F1, males, in feed, site: any site (literature study), lesion: several types, types named in the paper, dosed 78 weeks, study length 92 weeks): 178 mg/kg/day (inactive)
- TD50 (mouse, strain B6C3F1, males, in feed, site: liver, lesion: hepatocellular adenoma + hepatocellular carcinoma + neoplastic nodule, dosed 78 weeks, study length 92 weeks): 29.2 mg/kg/day
- TD50 (rat, strain Fischer 344, females, in feed, site: liver, lesion: hepatocellular adenoma + hepatocellular carcinoma + neoplastic nodule, dosed 78 weeks, study length 104 weeks): 94.4 mg/kg/day
- carcinogen call (rat, strain Fischer 344, males, in feed, site: any site (literature study), lesion: several types, types named in the paper, dosed 78 weeks, study length 104 weeks): negative (inactive)

Structure (SMILES): O=S(=O)(O)NC1CCCCC1
- TD50 (monkey, strain Cynomolgus [Macaca fascicularis], both sexes, in feed, site: liver, lesion: hepatocellular carcinoma, dosed 1238 weeks, study length 1238 weeks): 1250 mg/kg/day
- TD50 (monkey, strain Cynomolgus [Macaca fascicularis], both sexes, in feed, site: prostate, lesion: adenocarcinoma, dosed 1238 weeks, study length 1238 weeks): 35.6 mg/kg/day
- TD50 (monkey, strain Rhesus [Macaca mulatta], both sexes, in feed, site: any site (literature study), lesion: malignant tumor, dosed 1251 weeks, study length 1251 weeks): 3160 mg/kg/day
- TD50 (monkey, strain Rhesus [Macaca mulatta], both sexes, in feed, site: colon, lesion: adenocarcinoma, dosed 1251 weeks, study length 1251 weeks): 764 mg/kg/day
- TD50 (monkey, strain Rhesus [Macaca mulatta], both sexes, in feed, site: thyroid gland, lesion: papillary adenoma, dosed 1251 weeks, study length 1251 weeks): 182 mg/kg/day
- TD50 (mouse, strain (C3H x RIII)F1 (MTV+), males, in drinking water, site: any site (literature study), lesion: several types, types named in the paper, dosed 104 weeks, study length 104 weeks): 772 mg/kg/day
- TD50 (mouse, strain (C3H x RIII)F1 (MTV+), males, in drinking water, site: liver, lesion: several types, types named in the paper, dosed 104 weeks, study length 104 weeks): 1420 mg/kg/day
- TD50 (mouse, strain (C3H x RIII)F1 (MTV+), males, in drinking water, site: lung, lesion: several types, types named in the paper, dosed 104 weeks, study length 104 weeks): 4380 mg/kg/day
- carcinogen call (mouse, strain ASH-CS1, females, in feed, site: liver, lesion: one or several types, types not named, dosed 80 weeks, study length 82 weeks): negative (inactive)
- TD50 (mouse, strain ASH-CS1, females, in feed, site: lung, lesion: adenoma, dosed 80 weeks, study length 82 weeks): 228000 mg/kg/day (inactive)
- TD50 (mouse, strain ASH-CS1, females, in feed, site: reticuloendothelium, lesion: lymphosarcoma, dosed 80 weeks, study length 82 weeks): 16700 mg/kg/day (inactive)
- carcinogen call (mouse, strain ASH-CS1, males, in feed, site: liver, lesion: one or several types, types not named, dosed 80 weeks, study length 82 weeks): negative (inactive)
- carcinogen call (mouse, strain ASH-CS1, males, in feed, site: lung, lesion: adenoma, dosed 80 weeks, study length 82 weeks): negative (inactive)
- TD50 (mouse, strain RIII (MTV+), males, in drinking water, site: any site (literature study), lesion: several types, types named in the paper, dosed 104 weeks, study length 104 weeks): 4670 mg/kg/day
- TD50 (mouse, strain RIII (MTV+), males, in drinking water, site: lung, lesion: several types, types named in the paper, dosed 104 weeks, study length 104 weeks): 4670 mg/kg/day
- carcinogen call (mouse, strain Swiss albino, females, in feed, site: liver, lesion: hepatoma, dosed 76 weeks, study length 76 weeks): negative (inactive)
- carcinogen call (mouse, strain Swiss, females, in feed, site: urinary bladder, lesion: anaplastic carcinoma, dosed 91 weeks, study length 91 weeks): negative (inactive)
- carcinogen call (mouse, strain Swiss, males, in feed, site: urinary bladder, lesion: one or several types, types not named, dosed 91 weeks, study length 91 weeks): negative (inactive)
- TD50 (mouse, strain XVII/G, females, in drinking water, site: any site (literature study), lesion: several types, types named in the paper, dosed 104 weeks, study length 104 weeks): 587 mg/kg/day
- TD50 (mouse, strain XVII/G, females, in drinking water, site: liver, lesion: several types, types named in the paper, dosed 104 weeks, study length 104 weeks): 16000 mg/kg/day
- TD50 (mouse, strain XVII/G, females, in drinking water, site: lung, lesion: several types, types named in the paper, dosed 104 weeks, study length 104 weeks): 587 mg/kg/day
- TD50 (rat, strain Sprague-Dawley, both sexes, in feed, site: any site (literature study), lesion: malignant tumor, dosed 130 weeks, study length 130 weeks): 30700 mg/kg/day (inactive)
- carcinogen call (rat, strain Sprague-Dawley, both sexes, in feed, site: urinary bladder, lesion: papilloma, dosed 130 weeks, study length 130 weeks): negative (inactive)
- carcinogen call (rat, strain Sprague-Dawley, both sexes, in feed, site: urinary bladder, lesion: transitional-cell carcinoma, dosed 130 weeks, study length 130 weeks): negative (inactive)
- TD50 (rat, strain Wistar, both sexes, in feed, site: urinary bladder, lesion: one or several types, types not named, dosed 104 weeks, study length 104 weeks): 83900 mg/kg/day

Structure (SMILES): Clc1cccc(-c2cccc(Cl)c2)c1
- TD50 (rat, strain Wistar, males, in feed, site: liver, lesion: hepatocellular carcinoma, dosed 116 weeks, study length 116 weeks): 157 mg/kg/day

Structure (SMILES): CCCN(N=O)/C(N)=N/[N+](=O)[O-]
- TD50 (rat, strain Wistar, males, in drinking water, site: stomach, glandular, lesion: adenocarcinoma, dosed 52 weeks, study length 65 weeks): 2.85 mg/kg/day
- TD50 (rat, strain Wistar, males, in drinking water, site: stomach, glandular, lesion: adenocarcinoma, dosed 52 weeks, study length 78 weeks): 2.27 mg/kg/day
- TD50 (rat, strain Wistar, males, in drinking water, site: stomach, glandular, lesion: adenoma, dosed 34 weeks, study length 65 weeks): 1.9 mg/kg/day
- TD50 (rat, strain Wistar, males, in drinking water, site: stomach, glandular, lesion: adenoma, dosed 52 weeks, study length 65 weeks): 0.919 mg/kg/day
- TD50 (rat, strain Wistar, males, in drinking water, site: stomach, glandular, lesion: adenoma, dosed 52 weeks, study length 78 weeks): 2.27 mg/kg/day

Structure (SMILES): CCN(CC)C(=O)c1cccc(C)c1
- TD50 (mouse, strain Charles River CD1, females, in feed, site: liver, lesion: hepatocellular adenoma, dosed 78 weeks, study length 78 weeks): 150000 mg/kg/day (inactive)
- TD50 (mouse, strain Charles River CD1, females, in feed, site: liver, lesion: hepatocellular carcinoma, dosed 78 weeks, study length 78 weeks): 87000 mg/kg/day (inactive)
- TD50 (mouse, strain Charles River CD1, females, in feed, site: lung, lesion: alveolar/bronchiolar adenoma, dosed 78 weeks, study length 78 weeks): 14500 mg/kg/day (inactive)
- TD50 (mouse, strain Charles River CD1, males, in feed, site: liver, lesion: hepatocellular adenoma, dosed 78 weeks, study length 78 weeks): 2580 mg/kg/day (inactive)
- TD50 (mouse, strain Charles River CD1, males, in feed, site: liver, lesion: hepatocellular carcinoma, dosed 78 weeks, study length 78 weeks): 11500 mg/kg/day (inactive)
- carcinogen call (mouse, strain Charles River CD1, males, in feed, site: lung, lesion: alveolar/bronchiolar adenoma, dosed 78 weeks, study length 78 weeks): negative (inactive)
- TD50 (rat, strain Charles River CD (Sprague-Dawley), females, in feed, site: liver, lesion: hepatocellular adenoma, dosed 104 weeks, study length 104 weeks): 16700 mg/kg/day (inactive)
- carcinogen call (rat, strain Charles River CD (Sprague-Dawley), females, in feed, site: liver, lesion: hepatocellular carcinoma, dosed 104 weeks, study length 104 weeks): negative (inactive)
- TD50 (rat, strain Charles River CD (Sprague-Dawley), males, in feed, site: liver, lesion: hepatocellular adenoma, dosed 104 weeks, study length 104 weeks): 3390 mg/kg/day (inactive)
- carcinogen call (rat, strain Charles River CD (Sprague-Dawley), males, in feed, site: liver, lesion: hepatocellular carcinoma, dosed 104 weeks, study length 104 weeks): negative (inactive)
